Molecules are shown by their SMILES.

Experiment [1] concerns sulfhydryl modified aptamer 31 (DNA, aptamer) ACGCATAGGGTGCGACCACATACGCCCCATGTATGTCCCTTGGTTGTGCCCTATGCGT
The experiment in a line: electrochemical impedance spectroscopy. The conditions noted are these: K+ (0.5 M KCl), 10 mM K3[Fe(CN)6]/K4[Fe(CN)6], PBS pH 7.0, 30 min.

The subject of experiment [2] is Aptamer 31 (DNA, aptamer) ACGCATAGGGTGCGACCACATACGCCCCATGTATGTCCCTTGGTTGTGCCCTATGCGT
The experiment in a line: AuNP colorimetric assay (A620/A520 ratio > 1.1). The conditions noted are these: 1.0 M NaCl added after incubation to aggregate AuNPs; 0.4 μM aptamer, 1 μg/mL DEHP, 30 min; room temperature.

In experiment [3] the test system is Aptamer 123 (DNA, aptamer) ACGCATAGGGCAACCAGACCAGCCCCATCCCCATGTGACTTCTGTTTGGCCTATGCGT
The experiment in a line: AuNP colorimetric assay (A620/A520 ratio > 1.1). The conditions noted are these: 1.0 M NaCl added after incubation to aggregate AuNPs; 0.4 μM aptamer, 1 μg/mL DEHP, 30 min; room temperature.

Experiment [4] relates to Aptamer 203 (DNA, aptamer) ACGCATAGGGCAAGACAAACTGCGCCATTCAGCATGCTGTTCGGGTTGGCCTATGCGT
As to the kind of experiment: AuNP colorimetric assay (A620/A520 ratio > 1.1). The conditions noted are these: 1.0 M NaCl added after incubation to aggregate AuNPs; 0.4 μM aptamer, 1 μg/mL DEHP, 30 min; room temperature.

The subject of experiment [5] is Aptamer 281 (DNA, aptamer) ACGCATAGGGTGTGCATCAGCAGTACCAACGACGTTGTGGTGTGCTCATCCTATGCGT
The experiment in a line: AuNP colorimetric assay (A620/A520 ratio > 1.1). The conditions noted are these: 1.0 M NaCl added after incubation to aggregate AuNPs; 0.4 μM aptamer, 1 μg/mL DEHP, 30 min; room temperature.

Experiment [6] shares this test system. As to the kind of experiment: LSPR (OpenSPR), one-to-one kinetic model. The conditions noted are these: Na+ (29.2 g NaCl per 500 mL, about 1 M), Mg2+ (0.1 g MgCl2·6H2O per 500 mL, about 1 mM); immobilised compound; amine chip; phosphate buffer pH 7.0; aptamer as analyte, 2.5-40 nM.
The subject of experiment [7] is Aptamer 203 (DNA, aptamer) ACGCATAGGGCAAGACAAACTGCGCCATTCAGCATGCTGTTCGGGTTGGCCTATGCGT
As to the kind of experiment: LSPR (OpenSPR), one-to-one kinetic model. The conditions noted are these: Na+ (29.2 g NaCl per 500 mL, about 1 M), Mg2+ (0.1 g MgCl2·6H2O per 500 mL, about 1 mM); immobilised compound; amine chip; phosphate buffer pH 7.0; aptamer as analyte, 2.5-40 nM.

The test system of experiment [8] is Aptamer 31 (DNA, aptamer) ACGCATAGGGTGCGACCACATACGCCCCATGTATGTCCCTTGGTTGTGCCCTATGCGT
The experiment in a line: LSPR (OpenSPR), one-to-one kinetic model. The conditions noted are these: Na+ (29.2 g NaCl per 500 mL, about 1 M), Mg2+ (0.1 g MgCl2·6H2O per 500 mL, about 1 mM); immobilised compound; amine chip; phosphate buffer pH 7.0; aptamer as analyte, 2.5-40 nM.

In experiment [9] the test system is Aptamer 123 (DNA, aptamer) ACGCATAGGGCAACCAGACCAGCCCCATCCCCATGTGACTTCTGTTTGGCCTATGCGT
The experiment in a line: LSPR (OpenSPR), one-to-one kinetic model. The conditions noted are these: Na+ (29.2 g NaCl per 500 mL, about 1 M), Mg2+ (0.1 g MgCl2·6H2O per 500 mL, about 1 mM); immobilised compound; amine chip; phosphate buffer pH 7.0; aptamer as analyte, 2.5-40 nM.

Turning to `O=C(Oc1ccccc1)c1ccccc1C(=O)Oc1ccccc1`, in [1] (only 30.518 pg/mL tested), the binding entry is recorded as “no”. Turning to `CCCCOC(=O)c1ccccc1C(=O)OCc1ccccc1`, the binding entry in [1] (only 30.518 pg/mL tested) was “no”. `O=C(OC1CCCCC1)c1ccccc1C(=O)OC1CCCCC1`: the binding entry in experiment [1] (only 30.518 pg/mL tested) is on record as “no”. The same measure, in the same setting: for `CCOC(=O)c1ccccc1C(=O)OCC` the value was “no”; for `CC(C)COC(=O)c1ccccc1C(=O)OCC(C)C`, “no”; for `CCCCOC(=O)c1ccccc1C(=O)OCCCC`, “no”. The same measure, in the same setting: for `CCCCCCCCOC(=O)c1ccccc1C(=O)OCCCCCCCC` the value was “no”.

As to `COC(=O)c1ccccc1C(=O)OC`, in experiment [1] (only 30.518 pg/mL tested), the binding entry is reported as “no”. For `CCCCC(CC)COC(=O)c1ccccc1C(=O)OCC(CC)CCCC` (stereo not drawn), the binding result in [2], in experiment [1] (30.518 pg/mL), in [3], in experiment [4] and in experiment [5] was “yes” each time.

Turning to `CCCCC(CC)COC(=O)c1ccc(OCCCC(=O)O)cc1C(=O)OCC(CC)CCCC` (stereo not drawn), the Kd was 43 ± 0.7 nM in [6], 2.68 ± 0.2 nM in experiment [7], 2.26 ± 0.06 nM in experiment [8] and 5.33 ± 0.01 nM in experiment [9]. For the compound `CCCCCCOC(=O)c1ccccc1C(=O)OCCCCCC`, the binding entry in [1] (only 30.518 pg/mL tested) is recorded as “no”.

As usually defined, the Kd is the constant that tells how readily two partners part at equilibrium.

Values taken from PMC7038136 (2020).
